Assay results reported in ChEMBL document CHEMBL1201861, “Genomics of Drug Sensitity in Cancer screening data, Wellcome Trust Sanger Institute”.

Legend:
Test in all cases: cells
[1] = test system: GOTO; assay type: functional, cell-based, Homo sapiens; conditions: Homo sapiens, GOTO;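 also: growth inhibition of GOTO cells, read out by a cell viability assay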
Description: SANGER: Inhibition of human GOTO cell growth in a cell viability assay.

[2] = test system: SK-MEL-1; assay type: functional, cell-based, Homo sapiens; conditions: Homo sapiens, SK-MEL-1;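 also: growth inhibition of human SK-MEL-1 cells, read out by a cell viability assay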
Description: SANGER: Inhibition of human SK-MEL-1 cell growth in a cell viability assay.

[3] = test system: TE-10; assay type: functional, cell-based, Homo sapiens; conditions: Homo sapiens, TE-10;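 also: growth inhibition of TE-10 cells, measured by a cell viability assay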
Description: SANGER: Inhibition of human TE-10 cell growth in a cell viability assay.

[4] = test system: DMS-114; assay type: functional, cell-based, Homo sapiens; conditions: Homo sapiens, DMS-114
[5] = test system: VA-ES-BJ; assay type: functional, cell-based, Homo sapiens; conditions: Homo sapiens, VA-ES-BJ;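 also: growth inhibition of the VA-ES-BJ cell line, read out by a cell viability assay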
Description: SANGER: Inhibition of human VA-ES-BJ cell growth in a cell viability assay.

[6] = test system: MC116; assay type: functional, cell-based, Homo sapiens; conditions: Homo sapiens, MC116;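 also: growth inhibition of MC116 cells, read out with a cell viability assay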
Description: SANGER: Inhibition of human MC116 cell growth in a cell viability assay.

[7] = test system: GI-ME-N; assay type: functional, cell-based, Homo sapiens; conditions: Homo sapiens, GI-ME-N;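 also: growth inhibition of human GI-ME-N cells, read out with a cell viability assay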
Description: SANGER: Inhibition of human GI-ME-N cell growth in a cell viability assay.

[8] = test system: ALL-PO; assay type: functional, cell-based, Homo sapiens; conditions: Homo sapiens, ALL-PO;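 also: growth inhibition of ALL-PO cells, read out by a cell viability assay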
Description: SANGER: Inhibition of human ALL-PO cell growth in a cell viability assay.

[9] = test system: LAN-6; assay type: functional, cell-based, Homo sapiens; conditions: Homo sapiens, LAN-6;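 also: growth inhibition of LAN-6 cells, determined with a cell viability assay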
Description: SANGER: Inhibition of human LAN-6 cell growth in a cell viability assay.

[10] = test system: no-11; assay type: functional, cell-based, Homo sapiens; conditions: Homo sapiens;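 also: growth inhibition of human NO-11 cells, read out with a cell viability assay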
Description: SANGER: Inhibition of human no-11 cell growth in a cell viability assay.

[11] = test system: SH-4; assay type: functional, cell-based; conditions: Homo sapiens;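 also: growth inhibition of SH-4 cells, read out with a cell viability assay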
Description: SANGER: Inhibition of human SH-4 cell growth in a cell viability assay.

[12] = test system: OCUB-M; assay type: functional, cell-based; conditions: Homo sapiens;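 also: growth inhibition of the cancer cell line, read out through a cell viability assay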
Description: SANGER: Inhibition of human OCUB-M cell growth in a cell viability assay.

[13] = test system: EW-16; assay type: functional, cell-based, Homo sapiens; conditions: Homo sapiens, EW-16;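 also: growth inhibition of human EW-16 cells, read out as cell viability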
Description: SANGER: Inhibition of human EW-16 cell growth in a cell viability assay.

[14] = test system: NCI-H747; assay type: functional, cell-based, Homo sapiens; conditions: Homo sapiens, NCI-H747;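 also: growth inhibition of human NCI-H747 cells, read out by a cell viability assay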
Description: SANGER: Inhibition of human NCI-H747 cell growth in a cell viability assay.

[15] = test system: GB-1; assay type: functional, cell-based, Homo sapiens; conditions: Homo sapiens, GB-1;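 also: growth of GB-1 cells judged by a viability assay, IC50 marks the concentration inhibiting growth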
Description: SANGER: Inhibition of human GB-1 cell growth in a cell viability assay.

[16] = test system: MPP-89; assay type: functional, cell-based, Homo sapiens; conditions: Homo sapiens, MPP-89;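 also: growth inhibition of human MPP-89 cells, read out with a cell viability assay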
Description: SANGER: Inhibition of human MPP-89 cell growth in a cell viability assay.

[17] = test system: DJM-1; assay type: functional, cell-based, Homo sapiens; conditions: Homo sapiens, DJM-1;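 also: growth inhibition of human DJM-1 cells, read out by a cell viability assay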
Description: SANGER: Inhibition of human DJM-1 cell growth in a cell viability assay.

[18] = test system: RCC10RGB; assay type: functional, cell-based, Homo sapiens; conditions: Homo sapiens, RCC10RGB;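 also: growth inhibition of human RCC10RGB cells, read out by a cell viability assay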
Description: SANGER: Inhibition of human RCC10RGB cell growth in a cell viability assay.

[19] = test system: SF-126; assay type: functional, cell-based, Homo sapiens; conditions: Homo sapiens, SF-126;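 also: growth inhibition of human SF126 cells, read out with a cell viability assay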
Description: SANGER: Inhibition of human SF126 cell growth in a cell viability assay.

[20] = test system: NB5; assay type: functional, cell-based, Homo sapiens; conditions: Homo sapiens, NB5;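 also: growth inhibition of NB5 cells, read out as cell viability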
Description: SANGER: Inhibition of human NB5 cell growth in a cell viability assay.

[21] = test system: BB49-HNC; assay type: functional, cell-based, Homo sapiens; conditions: Homo sapiens, BB49-HNC;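 also: cell viability assay read-out, reported as inhibition of BB49-HNC cell growth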
Description: SANGER: Inhibition of human BB49-HNC cell growth in a cell viability assay.

[22] = test system: KE-37; assay type: functional, cell-based, Homo sapiens; conditions: Homo sapiens, KE-37;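 also: growth inhibition of KE-37 cells, read out with a cell viability assay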
Description: SANGER: Inhibition of human KE-37 cell growth in a cell viability assay.

[23] = test system: COLO-684; assay type: functional, cell-based, Homo sapiens; conditions: Homo sapiens, COLO-684
Description: SANGER: Inhibition of human COLO-684 cell growth in a cell viability assay.

[24] = test system: HL-60; assay type: functional, cell-based, Homo sapiens; conditions: Homo sapiens, HL-60;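 also: growth inhibition of human HL-60 cells, read out with a cell viability assay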
Description: SANGER: Inhibition of human HL-60 cell growth in a cell viability assay.

[25] = test system: NCI-H1304; assay type: functional, cell-based, Homo sapiens; conditions: Homo sapiens, NCI-H1304;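 also: growth inhibition of the cancer cell line, measured in a cell viability assay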
Description: SANGER: Inhibition of human NCI-H1304 cell growth in a cell viability assay.

[26] = test system: KGN; assay type: functional, cell-based, Homo sapiens; conditions: Homo sapiens, KGN;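 also: growth inhibition of KGN cells, read out with a cell viability assay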
Description: SANGER: Inhibition of human KGN cell growth in a cell viability assay.

[27] = test system: RXF 393; assay type: functional, cell-based, Homo sapiens; conditions: Homo sapiens, RXF 393;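 also: growth inhibition of human RXF 393 cells, read out with a cell viability assay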
Description: SANGER: Inhibition of human RXF393 cell growth in a cell viability assay.

[28] = test system: LB771-HNC; assay type: functional, cell-based; conditions: Homo sapiens;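 also: growth inhibition of LB771-HNC human cells, read out with a cell viability assay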
Description: SANGER: Inhibition of human LB771-HNC cell growth in a cell viability assay.

[29] = test system: GR-ST; assay type: functional, cell-based, Homo sapiens; conditions: Homo sapiens, GR-ST
Description: SANGER: Inhibition of human GR-ST cell growth in a cell viability assay.

[30] = test system: KLE; assay type: functional, cell-based; conditions: Homo sapiens;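 also: growth inhibition of human KLE cells, read out with a cell viability assay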
Description: SANGER: Inhibition of human KLE cell growth in a cell viability assay.

[31] = test system: MOLT-16; assay type: functional, cell-based, Homo sapiens; conditions: Homo sapiens, MOLT-16;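 also: growth inhibition of human MOLT-16 cells, read out with a cell viability assay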
Description: SANGER: Inhibition of human MOLT-16 cell growth in a cell viability assay.

[32] = test system: NB6; assay type: functional, cell-based, Homo sapiens; conditions: Homo sapiens, NB6;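 also: growth inhibition of NB6 cells, read out by a cell viability assay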
Description: SANGER: Inhibition of human NB6 cell growth in a cell viability assay.

[33] = test system: EW-11; assay type: functional, cell-based, Homo sapiens; conditions: Homo sapiens, EW-11;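 also: growth inhibition of human EW-11 cells, measured with a cell viability assay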
Description: SANGER: Inhibition of human EW-11 cell growth in a cell viability assay.

[34] = test system: OVCAR-4; assay type: functional, cell-based, Homo sapiens; conditions: Homo sapiens, OVCAR-4;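 also: growth inhibition of human OVCAR-4 cells, measured with a cell viability assay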
Description: SANGER: Inhibition of human OVCAR-4 cell growth in a cell viability assay.

[35] = test system: COR-L88; assay type: functional, cell-based, Homo sapiens; conditions: Homo sapiens, COR-L88;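 also: growth inhibition of COR-L88 cells, read out with a cell viability assay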
Description: SANGER: Inhibition of human COR-L88 cell growth in a cell viability assay.

[36] = test system: SNU-C2B; assay type: functional, cell-based; conditions: Homo sapiens;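 also: cell viability readout used to measure compound-driven suppression of SNU-C2B cell proliferation, IC50 marking half-maximal growth inhibition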
Description: SANGER: Inhibition of human SNU-C2B cell growth in a cell viability assay.

[37] = test system: KS-1; assay type: functional, cell-based; conditions: Homo sapiens;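 also: growth inhibition of KS-1 cells, read out with a cell viability assay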
Description: SANGER: Inhibition of human KS-1 cell growth in a cell viability assay.

[38] = test system: LS-1034; assay type: functional, cell-based, Homo sapiens; conditions: Homo sapiens, LS-1034
Description: SANGER: Inhibition of human LS-1034 cell growth in a cell viability assay.

[39] = test system: KARPAS-45; assay type: functional, cell-based, Homo sapiens; conditions: Homo sapiens, KARPAS-45;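 also: inhibition of cell line growth, read out through a viability assay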
Description: SANGER: Inhibition of human KARPAS-45 cell growth in a cell viability assay.

[40] = test system: TGBC24TKB; assay type: functional, cell-based; conditions: Homo sapiens;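 also: growth inhibition of human TGBC24TKB cells, read out with a cell viability assay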
Description: SANGER: Inhibition of human TGBC24TKB cell growth in a cell viability assay.

[41] = test system: Lu-65; assay type: functional, cell-based, Homo sapiens; conditions: Homo sapiens, Lu-65;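 also: growth inhibition of Lu-65 cancer cells, read out by a cell viability assay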
Description: SANGER: Inhibition of human LU-65 cell growth in a cell viability assay.

[42] = test system: MZ2-MEL; assay type: functional, cell-based, Homo sapiens; conditions: Homo sapiens, MZ2-MEL;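 also: growth inhibition of MZ2-MEL cells read out with a cell viability assay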
Description: SANGER: Inhibition of human MZ2-MEL cell growth in a cell viability assay.

[43] = test system: NCI-H1395; assay type: functional, cell-based, Homo sapiens; conditions: Homo sapiens, NCI-H1395;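 also: cell viability assay read-out quantifying reduced proliferation of human NCI-H1395 cells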
Description: SANGER: Inhibition of human NCI-H1395 cell growth in a cell viability assay.

[44] = test system: GT3TKB; assay type: functional, cell-based, Homo sapiens; conditions: Homo sapiens, GT3TKB;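 also: growth inhibition of the cell line, read out with a cell viability assay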
Description: SANGER: Inhibition of human GT3TKB cell growth in a cell viability assay.

[45] = test system: NKM-1; assay type: functional, cell-based, Homo sapiens; conditions: Homo sapiens, NKM-1;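 also: growth inhibition of NKM-1 cells, read out with a cell viability assay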
Description: SANGER: Inhibition of human NKM-1 cell growth in a cell viability assay.

[46] = test system: BE-13; assay type: functional, cell-based, Homo sapiens; conditions: Homo sapiens, BE-13;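 also: growth inhibition of human BE-13 cells, measured with a cell viability assay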
Description: SANGER: Inhibition of human BE-13 cell growth in a cell viability assay.

[47] = test system: GI-1; assay type: functional, cell-based, Homo sapiens; conditions: Homo sapiens, GI-1;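 also: growth inhibition of human GI-1 cells, measured with a cell viability readout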
Description: SANGER: Inhibition of human GI-1 cell growth in a cell viability assay.

[48] = test system: C2BBe1; assay type: functional, cell-based, Homo sapiens; conditions: Homo sapiens, C2BBe1;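 also: growth inhibition of C2BBe1 cells, read out through a viability assay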
Description: SANGER: Inhibition of human C2BBe1 cell growth in a cell viability assay.

[49] = test system: NCI-H2126; assay type: functional, cell-based, Homo sapiens; conditions: Homo sapiens, NCI-H2126;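 also: growth inhibition of the cancer cell line, determined with a cell viability readout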
Description: SANGER: Inhibition of human NCI-H2126 cell growth in a cell viability assay.

Measured: IC50

NC1(c2ccc(-c3nc4ccn5c(=O)[nH]nc5c4cc3-c3ccccc3)cc2)CCC1 [MK-2206]
3.22 µM: [13]
3.21 µM: [14]
0.373 µM: [39]
3.05 µM: [29]
0.303 µM: [31]
0.71 µM: [12]
1.24 µM: [23]
3.62 µM: [4]
> 4 µM: [1] | [2] | [3] | [6] | [7] | [8] | [9] | [10] | [11] | [15] | [16] | [17] | [18] | [19] | [20] | [21] | [24] | [25] | [26] | [28] | [30] | [32] | [33] | [34] | [35] | [36] | [38] | [40] | [41] | [42] | [44] | [46] | [47] | [48]
0.863 µM: [45]
0.583 µM: [22]
2.6 µM: [27]
2.38 µM: [37]
2.18 µM: [43]
0.73 µM: [5]

CN(C)CCOc1ccc(-c2nc(-c3ccncc3)c(-c3ccc4c(c3)CC/C4=N\O)[nH]2)cc1 [SB590885]
3.92 µM: [39]
1.96 µM: [48]
> 5 µM: [1] | [2] | [3] | [4] | [5] | [6] | [7] | [8] | [9] | [10] | [12] | [13] | [14] | [49] | [15] | [16] | [17] | [18] | [19] | [20] | [21] | [22] | [23] | [24] | [25] | [26] | [27] | [28] | [29] | [30] | [31] | [32] | [33] | [34] | [35] | [36] | [37] | [38] | [40] | [41] | [42] | [43] | [44] | [46] | [47]
0.812 µM: [11]
1.67 µM: [45]

CS(=O)(=O)N1CCN(Cc2cc3nc(-c4cccc5[nH]ncc45)nc(N4CCOCC4)c3s2)CC1 [PICTILISIB]
0.426 µM: [24]
0.593 µM: [45]
1.89 µM: [21]
1.31 µM: [2]
0.957 µM: [20]
> 4 µM: [1] | [3] | [4] | [6] | [7] | [8] | [9] | [10] | [11] | [12] | [14] | [49] | [15] | [16] | [17] | [18] | [22] | [25] | [26] | [27] | [28] | [29] | [30] | [31] | [32] | [33] | [34] | [36] | [38] | [43] | [44] | [46] | [47] | [48]
1.08 µM: [40]
2.31 µM: [19]
2.11 µM: [37]
1.61 µM: [5]
1.85 µM: [13]
3.66 µM: [42]
0.523 µM: [23]
